These results are taken from BindingDB's records for doi:10.1016/j.bioorg.2016.01.003 (Panjab University, 2016).

Some results are limits rather than exact numbers.

What all share (experiment): Radioligand Binding Assay
Assay [1] deals with T1, Adenosine receptor A1 (Homo sapiens, UniProt P30542).
T1 sequence (P30542 whole entry): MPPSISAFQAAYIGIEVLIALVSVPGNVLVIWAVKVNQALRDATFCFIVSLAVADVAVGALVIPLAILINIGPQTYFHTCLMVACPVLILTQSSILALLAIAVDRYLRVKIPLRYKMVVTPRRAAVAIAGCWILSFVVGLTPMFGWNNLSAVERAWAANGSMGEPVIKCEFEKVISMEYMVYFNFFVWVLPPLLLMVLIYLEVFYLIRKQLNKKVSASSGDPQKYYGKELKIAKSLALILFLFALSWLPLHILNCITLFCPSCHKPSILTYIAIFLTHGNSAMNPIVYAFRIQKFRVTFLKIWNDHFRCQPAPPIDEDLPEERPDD
As to the method: (§1) Dissociation constants at A1, A2A and A3 receptors (Ki-values) were determined in radioligand competition experiments as reported earlier [19,20]. All binding experiments were done in a microplate format utilizing a 96-well microplate filtration system (Millipore Multiscreen MAFC). As radioligands the agonists [3H]CCPA (1 nM) for A1, [3H]NECA (10 nM) for A2A, and [3H]HEMADO (1 nM) for A3 receptors were used. Samples were incubated with 10 µg of membrane protein for 3 h at 25 °C, filtered through the built-in filter at the bottom of the wells and washed three times with […] of ice-cold binding buffer. After addition of 20 µl of scintillator to the dried filter plates samples were counted in a Wallac Micro-Beta counter. Nonspecific binding was determined in the presence of 1 mM theophylline ([3H]CCPA) or […] (N6-phenylisopropyladenosine; [3H]NECA and [3H] HEMADO).

The target of assay [2] is Adenosine receptor A2a (Homo sapiens, UniProt P29274). As to the method:
as §1

The target of assay [3] is T2, Adenosine receptor A2b (Homo sapiens, UniProt P29275).
T2 sequence (P29275 whole entry): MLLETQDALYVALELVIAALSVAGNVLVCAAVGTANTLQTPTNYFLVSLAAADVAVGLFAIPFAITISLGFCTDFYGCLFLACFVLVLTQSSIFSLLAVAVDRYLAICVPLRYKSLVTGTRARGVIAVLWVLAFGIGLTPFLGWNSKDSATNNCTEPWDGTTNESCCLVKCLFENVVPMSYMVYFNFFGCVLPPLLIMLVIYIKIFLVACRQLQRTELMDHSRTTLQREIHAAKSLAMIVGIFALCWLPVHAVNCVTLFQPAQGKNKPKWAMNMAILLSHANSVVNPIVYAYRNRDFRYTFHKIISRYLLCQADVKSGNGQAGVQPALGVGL

Adenosine receptor A2a, sequence (P29274 whole entry): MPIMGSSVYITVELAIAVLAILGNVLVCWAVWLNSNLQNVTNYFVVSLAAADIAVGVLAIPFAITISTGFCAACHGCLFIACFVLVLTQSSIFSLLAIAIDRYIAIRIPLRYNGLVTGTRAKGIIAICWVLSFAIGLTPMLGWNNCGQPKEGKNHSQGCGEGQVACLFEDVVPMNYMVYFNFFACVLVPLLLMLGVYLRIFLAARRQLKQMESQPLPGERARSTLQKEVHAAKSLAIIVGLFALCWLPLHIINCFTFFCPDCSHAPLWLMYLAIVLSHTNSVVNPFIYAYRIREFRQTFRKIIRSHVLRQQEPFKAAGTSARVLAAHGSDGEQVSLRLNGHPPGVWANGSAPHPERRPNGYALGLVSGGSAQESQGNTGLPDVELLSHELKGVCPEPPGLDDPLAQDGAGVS

Take `COC(=O)COc1cc(-c2nc3c([nH]2)c(=O)n(C)c(=O)n3C)ccc1OC` [1,3-Dimethyl-8-[{3-(2-methoxy-2-oxoethoxy)-4-methoxy}-phenyl]xanthine (16, RB-410)]: the Ki in assay [1] was 11.8 µM; in assay [2], 0.717 µM; in assay [3] it was greater than 10 µM.
In the same order, the values of `COc1cc(-c2nc3c([nH]2)c(=O)n(C)c(=O)n3C)ccc1OCC(=O)NCCN(C)C` [1,3-Dimethyl-8-[{4-(2-(dimethylaminoethylamino)-2-oxoethoxy)-3-methoxy}-phenyl]xanthine (15a, RB-386)] are 9.25 µM, 0.821 µM and 10 µM.
For the molecule `COc1cc(-c2nc3c([nH]2)c(=O)n(C)c(=O)n3C)ccc1OCC(=O)N1CCCCCC1` [1,3-Dimethyl-8-[{4-(2-(hexamethyleneimin-1-yl)-2-oxoethoxy)-3-methoxy}-phenyl]xanthine (15e, RB-387)], the Ki was greater than 10 µM in assay [1], 2.41 µM in assay [2] and 7.82 µM in assay [3].
In the same order, the values of `COc1ccc(CCNC(=O)COc2ccc(-c3nc4c([nH]3)c(=O)n(C)c(=O)n4C)cc2OC)cc1OC` [1,3-Dimethyl-8-[{4-(2-(homoveratrylamino)-2-oxoethoxy)-3-methoxy}-phenyl]-xanthine (15i, RB-389)] are greater than 30 µM, 0.843 µM and greater than 30 µM.
`COc1cc(-c2nc3c([nH]2)c(=O)n(C)c(=O)n3C)ccc1OCC(=O)n1ccnc1` [1,3-Dimethyl-8-[{4-(2-(imidazol-1-yl)-2-oxoethoxy)-3-methoxy}-phenyl]xanthine (15h, RB-390)]: the Ki was greater than 30 µM in assay [1], 7.74 µM in assay [2] and greater than 30 µM in assay [3].
In the case of `COC(=O)COc1ccc(-c2nc3c([nH]2)c(=O)n(C)c(=O)n3C)cc1OC` [1,3-Dimethyl-8-[{4-(2-methoxy-2-oxoethoxy)-3-methoxy}-phenyl]xanthine (15, RB-384)], the Ki was greater than 30 µM in assay [1], 4.38 µM in assay [2] and greater than 10 µM in assay [3].
In the case of `CCN(CC)CCNC(=O)COc1cccc(-c2nc3c([nH]2)c(=O)n(C)c(=O)n3C)c1` [8-[3-{2-(Diethylaminoethylamino)-2-oxoethoxy}-phenyl]-1,3-dimethylxanthine (14b, RB-378)], the Ki in assay [1] is 1.22 µM; in assay [2], 0.179 µM; in assay [3], 4.91 µM.
In the case of `CCN(CC)CCNC(=O)COc1ccc(-c2nc3c([nH]2)c(=O)n(C)c(=O)n3C)cc1` [8-[4-{2-(Diethylaminoethylamino)-2-oxoethoxy}-phenyl]-1,3-dimethylxanthine (13b, RB-421)], the Ki in assay [1] was found to be 0.298 µM; in assay [2], 0.063 µM; in assay [3] it was 0.968 µM.
Regarding `CCN(CC)CCNC(=O)COc1cc(-c2nc3c([nH]2)c(=O)n(C)c(=O)n3C)ccc1OC` [8-[{3-(2-(Diethylaminoethylamino)-2-oxoethoxy)-4-methoxy}phenyl]-1,3-dimethylxanthine (16b, RB-411)], the Ki in assay [1] worked out at 1.97 µM; in assay [2] it was 0.126 µM; in assay [3], 8.05 µM.
Turning to `CCN(CC)CCNC(=O)COc1ccc(-c2nc3c([nH]2)c(=O)n(C)c(=O)n3C)cc1OC` [8-[{4-(2-(Diethylaminoethylamino)-2-oxoethoxy)-3-methoxy}-phenyl]-1,3-dimethyl-xanthine (15b, RB-388)], the Ki in assay [1] was greater than 10 µM; in assay [2], 0.692 µM; in assay [3], greater than 10 µM.

One may read the Ki as a measure of affinity in units of concentration, obtained from inhibition or displacement. A lower Ki goes with higher affinity.
